Test results as given in patent US20160052898A1, “NOVEL COMPOUNDS” (BAYER PHARMA AKTIENGESELLSCHAFT, priority 2013, published 2016).
Structures can show the parent of a compound that is named as a salt.

Legend:
[1] = test system: constitutive active colorectal cancer cell (CRC) Wnt pathway; experiment: HCT116 Super TopFlash cellular reporter assay (constitutive active Wnt pathway); format: cell-based; conditions: Homo sapiens, HCT-116, 36 h, HCT116 TOP reporter cells, luciferase expression, 36 hours incubation, 50 μM to 15 nM
Method in brief: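 HCT116 cells (β-catenin ΔS45) stably carrying Super TopFlash, with a parallel FOP-control line, were plated 24 h ahead. They were exposed 36 h at 37 °C, 5% CO2 to compound from a 50 μM–15 nM, 3.16-fold pre-dilution series in CAFTY buffer (pH 7.4, 2 mM Ca2+, 0.01% BSA). Wnt signalling was read as luciferase luminescence.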

[2] = test system: HCT116 FOP control reporter cell line; experiment: HCT116 FOP control vector reporter assay (non-functional TCF elements); format: cell-based; conditions: Homo sapiens, HCT-116, 36 h, HCT116 FOP control reporter cells, luciferase expression, 36 hours incubation, 50 μM to 15 nM; read-out: HCT116 FOPFlash IC50
Method in brief: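 Stable HCT116 line carrying the non-functional FOP luciferase construct, 10000 cells/well plated 24 hrs before. Compounds 50 μM to 15 nM (3.16-fold steps) in CAFTY buffer pH 7.4 with 2 mM Ca2+, 36 hours at 37° C; luciferase luminescence read.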

Row | Compound | IC50 [1] [µM] | IC50 [2] [µM]
1 | COc1ccc(NC(=O)c2ccc(-c3ccccc3)cc2)cc1NC(=O)Cc1ccc(F)cc1 [Example 138, N-(3-{[(4-fluorophenyl)acetyl]amino}-4-methoxyphenyl)biphenyl-4-carboxamide] | 1.2 | ≥ 50
2 | O=C(CNCCO)Nc1cc(NC(=O)c2ccc(-c3ccccc3)cc2)ccc1OC(F)(F)F [Example 140, N-[3-{[N-(2-hydroxyethyl)glycyl]amino}-4-(trifluoromethoxy)phenyl] biphenyl-4-carboxamide] | 1.7 | 25
3 | COc1ccc(NC(=O)c2ccc(-c3ccccc3)cc2)cc1NC(=O)CCN1CCOCC1 [Example 141, N-(4-methoxy-3-{[3-(morpholin-4-yl)propanoyl]amino}phenyl) biphenyl-4-carboxamide] | 2.5 | ≥ 50
4 | COc1ccc(NC(=O)c2ccc(-c3ccccc3)cc2)cc1NC(=O)Cc1cccc(F)c1 [Example 142, N-(3-{[(3-fluorophenyl)acetyl]amino}-4-methoxyphenyl)biphenyl-4-carboxamide] | 2.85 | ≥ 50
5 | COc1cccc(CC(=O)Nc2cc(NC(=O)c3ccc(-c4ccccc4)cc3)ccc2OC)c1 [Example 143, N-(4-methoxy-3-{[(3-methoxyphenyl}acetyl]amino}phenyl)biphenyl-4-carboxamide] | 3.3 | ≥ 50
6 | COc1ccc(CC(=O)Nc2cc(NC(=O)c3ccc(-c4ccccc4)cc3)ccc2OC)cc1 [Example 144, N-(4-methoxy-3-{[(4-methoxyphenyl)acetyl]amino}phenyl)biphenyl-4-carboxamide] | 3.85 | ≥ 50
7 | COc1ccc(NC(=O)c2ccc(-c3ccccc3)cc2)cc1NC(=O)CC1CCCCC1 [Example 145, N-{3-((cyclohexylacetyl)amino]-4-methoxyphenyl}biphenyl-4-carboxamide] | 4.8 | ≥ 50
8 | COCc1ccc(C(=O)Nc2ccc(-c3ccccc3)cc2)cc1NC(=O)CN1CC2CCC(C1)O2 [Example 154, N-(biphenyl-4-yl)-4-(methoxymethyl)-3-[(8-oxa-3-azabicyclo[3.2.1]oct-3-ylacetyl)amino]benzamide] | 0.0476 | 42.5
9 | COCc1ccc(C(=O)Nc2ccc(-c3ccccc3)cc2)cc1NC(=O)C1(N(C)C)CC1 [Example 158] | 0.063 | ≥ 50
10 | COCCCOCc1ccc(C(=O)Nc2ccc(-c3ccccc3)cc2)cc1NC(=O)C(C)N1CCOCC1 (stereo not shown) [Example 160, N-(biphenyl-4-yl)-4-[(3-methoxypropoxy)methyl]-3-([2-(morpholin-4-yl)propanoyl]amino} benzamide] | 0.0795 | 30
11 | CC(C(=O)Nc1cc(NC(=O)c2ccc(-c3ccccc3)cc2)ccc1C(F)(F)F)N1CCOCC1 (stereo not shown) [Example 161, N-[3-{[2-(morpholin-4-yl)propanoyl]amino}-4-(trifluoromethyl)phenyl] biphenyl-4-carboxamide] | 0.098 | ≥ 50
12 | COCCOCc1ccc(C(=O)Nc2ccc(-c3ccccc3)cc2)cc1NC(=O)C(C)N1CCOCC1 (stereo not shown) [Example 164, N-(biphenyl-4-yl)-4-[(2-methoxyethoxy)methyl]-3-{[2-(morpholin-4-yl)propanoyl]amino} benzamide] | 0.134 | ≥ 50
13 | COCc1ccc(C(=O)Nc2ccc(-c3ccccc3)cc2)cc1NC(=O)C(C)N1CC2CCC(C1)O2 (stereo not shown) [Example 170, N-(biphenyl-4-yl)-4-(methoxymethyl)-3-{(2-(8-oxa-3-azabicyclo[3.2.1]oct-3-yl)propanoyl)amino} benzamide] | 0.178 | 7.4
14 | COC1CCN(CC(=O)Nc2cc(C(=O)Nc3ccc(-c4ccccc4)cc3)ccc2OC2CC2)C1 (stereo not shown) [Example 174, N-(biphenyl-4-yl)-4-(cyclopropyloxy)-3-{[(3-methoxypyrrolidin-1-yl)acetyl)amino}benzamide] | 0.215 | ≥ 50
15 | COCc1ccc(C(=O)Nc2ccc(-c3ccccc3)cc2)cc1NC(=O)CN1C[C@@H]2C[C@H]1CO2 [Example 175, N-(biphenyl-4-yl)-4-(methoxymethyl)-3-{[(1S,4S)-2-oxa-5-azabicyclo[2.2.1]hept-5-ylacetyl)amino}benzamide] | 0.218 | 7.3
16 | COCCCOCc1ccc(C(=O)Nc2ccc(-c3ccccc3)cc2)cc1NC(=O)CN1CC2CCC(C1)O2 [Example 176, N-(biphenyl-4-yl)-4-[(3-methoxypropoxy)methyl]-3-[(8-oxa-3-azabicyclo[3.2.1]oct-3-ylacetyl)amino]benzamide] | 0.26 | 3.42
17 | CC(C(=O)Nc1cc(NC(=O)c2ccc(-c3ccccc3)cc2)ccc1C(F)(F)F)N1CC2CCC(C1)O2 (stereo not shown) [Example 178, N-[3-{[2-(8-oxa-3-azabicyclo[3.2.1]oct-3-yl)propanoyl]amino}-4-(trifluoromethyl)phenyl) biphenyl-4-carboxamide] | 0.285 | 47.5

Now from value to compound:

Row | IC50 [1] [µM] | IC50 [2] [µM] | Compound
18 | 1.43 | ≥ 50 | CC(CN1CCOCC1)C(=O)Nc1cc(C(=O)Nc2ccc(-c3ccccc3)cc2)ccc1C(F)(F)F (stereo not shown) [Example 139, N-(biphenyl-4-yl)-3-{[2-methyl-3-(morpholin-4-yl)propanoyl]amino}-4-(trifluoromethyl)benzamide]
19 | 0.0102 | ≥ 50 | COC(=O)c1ccc(C(=O)Nc2ccc(-c3ccccc3)cc2)cc1NC(=O)C1(N2CCOCC2)CC1 [Example 147, methyl 4-(biphenyl-4-ylcarbamoyl)-2-({[1-(morpholin-4-yl)cyclopropyl]carbonyl}amino)benzoate]
20 | 0.0122 | ≥ 50 | O=C(Nc1ccc(OC(F)(F)F)c(NC(=O)C2(N3CCOCC3)CC2)c1)c1ccc(-c2ccccc2)cc1 [Example 148, N-[3-({[1-(morpholin-4-yl)cyclopropyl]carbonyl}amino)-4-(trifluoromethoxy)phenyl] biphenyl-4-carboxamide]
21 | 0.0133 | 15 | COCc1ccc(C(=O)Nc2ccc(-c3ccccc3)cc2)cc1NC(=O)C1(N2CCN(C3CC3)CC2)CC1 [Example 149, N-(biphenyl-4-yl)-3-({[1-(4-cyclopropylpiperazin-1-yl)cyclopropyl]carbonyl}amino)-4-(methoxymethyl)benzamide]
22 | 0.0262 | ≥ 50 | COc1ccc(NC(=O)c2ccc(-c3ccccc3)cc2)cc1NC(=O)C1(N2CCOCC2)CC1 [Example 150, N-[4-methoxy-3-({[1-(morpholin-4-yl)cyclopropyl]carbonyl}amino)phenyl]biphenyl-4-carboxamide]
23 | 0.0282 | ≥ 50 | O=C(Nc1ccc(-c2ccccc2)cc1)c1ccc(F)c(NC(=O)C2(N3CCOCC3)CC2)c1 [Example 151, N-(biphenyl-4-yl)-4-fluoro-3-({[1-(morpholin-4-yl)cyclopropyl]carbonyl}amino)benzamide]
24 | 0.0338 | 29 | O=C(Nc1ccc(-c2ccccc2)cc1)c1ccc(Br)c(NC(=O)C2(N3CCOCC3)CC2)c1 [Example 152, N-(biphenyl-4-yl)-4-bromo-3-({[1-(morpholin-4-yl)cyclopropyl]carbonyl}amino)benzamide]
25 | 0.044 | ≥ 50 | COc1ccc(C(=O)Nc2ccc(-c3ccccc3)cc2)cc1NC(=O)[C@@H](C)N1CCOCC1 [Example 153, N-(biphenyl-4-yl)-4-methoxy-3-{[(2R)-2-(morpholin-4-yl)propanoyl]amino} benzamide]
26 | 0.0498 | ≥ 50 | CC(C)NC(=O)c1ccc(C(=O)Nc2ccc(-c3ccccc3)cc2)cc1NC(=O)CN1CCOCC1 [Example 155, N^4-(biphenyl-4-yl)-2-[(morpholin-4-ylacetyl)amino]-N^1-(propan-2-yl)benzene-1,4-dicarboxamide]
27 | 0.0527 | ≥ 50 | COc1ccc(C(=O)Nc2ccc(-c3ccccc3)cc2)cc1NC(=O)C1(N2CCN(C3CC3)CC2)CC1 [Example 156, N-(biphenyl-4-yl)-3-({[1-(4-cyclopropylpiperazin-1-yl)cyclopropyl)carbonyl}amino)-4-methoxybenzamide]
28 | 0.0605 | 43.5 | COCc1ccc(C(=O)Nc2ccc(-c3ccccc3)cc2)cc1NC(=O)C(C)N1CCOCC1 (stereo not shown) [Example 157, N-(biphenyl-4-yl)-4-(methoxymethyl)-3-{[2-(morpholin-4-yl)propanoyl)amino} benzamide]
29 | 0.0705 | ≥ 50 | Cc1ccc(C(=O)Nc2ccc(-c3ccccc3)cc2)cc1NC(=O)C1(N2CCOCC2)CC1 [Example 159, N-(biphenyl-4-yl)-4-methyl-3-({[1-(morpholin-4-yl)cyclopropyl)carbonyl}amino)benzamide]
30 | 0.127 | 12.6 | COc1ccc(NC(=O)c2ccc(-c3ccccc3)cc2)cc1NC(=O)C1(N2CCN(C)CC2)CC1 [Example 163, N-[4-methoxy-3-({[1-(4-methylpiperazin-1-yl)cyclopropyl]carbonyl}amino)phenyl]biphenyl-4-carboxamide hydrochloride (1:1)]
31 | 0.135 | ≥ 50 | COCc1ccc(C(=O)Nc2ccc(-c3ccccc3)cc2)cc1NC(=O)CN1CCOCC1 [Example 165, N-(biphenyl-4-yl)-4-(methoxymethyl)-3-[(morpholin-4-ylacetyl)amino]benzamide]
32 | 0.2 | ≥ 50 | O=C(Nc1ccc(F)c(NC(=O)C2(N3CCOCC3)CC2)c1)c1ccc(-c2ccccc2)cc1 [Example 171, N-[4-fluoro-3-({[1-(morpholin-4-yl)cyclopropyl]carbonyl}amino)phenyl]biphenyl-4-carboxamide]
